Numbered stars: 1 amine (or outer) side, 2 acyl side, 3 side chain; on linkers, the order of the positions; unused ones are H or OH. Bridge positions count the residues as written; N and C are the ends. Peptide text beside a SMILES is read from it. * marks the point of attachment. X1 = O=C(O)CN1CCN(CC(=O)O)CCN(CC(=O)N2CCN(Cc3cc(C[*:1])cc(C[*:2])c3)CC2)CCN(CC(=O)O)CC1; Hexanoyl = CCCCCC(=O)*
Experiments:
NMDA = conditions: 10 μM
CB1 (h) = CB1 (h) (Homo sapiens, UniProt P21554); assay: biochemical; conditions: read-out: % Inhibition of Specific Binding
[1] = target: N neuronal alpha 4beta 2 (h) (Homo sapiens, UniProt P17787+P43681); assay: biochemical; conditions: read-out: % Inhibition of Specific Binding
5-HT1B (h) = 5-HT1B (h) (Homo sapiens, UniProt P28222); assay: biochemical; conditions: read-out: % Inhibition of Specific Binding
V1a (h) = V1a (h) (Homo sapiens, UniProt P37288); assay: biochemical; conditions: read-out: % Inhibition of Specific Binding
COX1(h) = COX1(h) (Homo sapiens, UniProt P23219); assay: biochemical; conditions: read-out: % Inhibition of Specific Binding
PDE3A (h) = PDE3A (h) (Homo sapiens, UniProt Q14432); assay: biochemical; conditions: read-out: % Inhibition of Specific Binding
Cathepsin F = target: T1, Cathepsin F (Homo sapiens, UniProt Q9UBX1); assay: biochemical; conditions: read-out: Percentage inhibition (%)
T1 sequence (Q9UBX1 271-484): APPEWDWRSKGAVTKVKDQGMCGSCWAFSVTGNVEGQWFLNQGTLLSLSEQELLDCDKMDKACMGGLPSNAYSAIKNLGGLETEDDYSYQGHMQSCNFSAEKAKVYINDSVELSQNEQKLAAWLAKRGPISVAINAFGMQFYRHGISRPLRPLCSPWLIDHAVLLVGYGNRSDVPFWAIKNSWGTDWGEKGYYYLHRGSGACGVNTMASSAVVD

[2] = target: T2, Ubiquitin carboxy-terminal hydrolase L1 (Homo sapiens, UniProt P09936); assay: biochemical; conditions: read-out: Percentage inhibition (%)
T2 sequence (P09936 1-223): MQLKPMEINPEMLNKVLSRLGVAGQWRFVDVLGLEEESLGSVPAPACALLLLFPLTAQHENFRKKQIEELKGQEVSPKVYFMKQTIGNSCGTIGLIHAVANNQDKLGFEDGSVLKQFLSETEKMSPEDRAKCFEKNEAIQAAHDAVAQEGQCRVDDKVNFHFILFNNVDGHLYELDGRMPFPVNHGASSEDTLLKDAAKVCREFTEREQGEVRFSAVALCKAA

[3] = target: T3, Ubiquitin carboxyl-terminal hydrolase 5 (Homo sapiens, UniProt P45974); assay: biochemical; conditions: read-out: Percentage inhibition (%)
T3 sequence (P45974 1-858): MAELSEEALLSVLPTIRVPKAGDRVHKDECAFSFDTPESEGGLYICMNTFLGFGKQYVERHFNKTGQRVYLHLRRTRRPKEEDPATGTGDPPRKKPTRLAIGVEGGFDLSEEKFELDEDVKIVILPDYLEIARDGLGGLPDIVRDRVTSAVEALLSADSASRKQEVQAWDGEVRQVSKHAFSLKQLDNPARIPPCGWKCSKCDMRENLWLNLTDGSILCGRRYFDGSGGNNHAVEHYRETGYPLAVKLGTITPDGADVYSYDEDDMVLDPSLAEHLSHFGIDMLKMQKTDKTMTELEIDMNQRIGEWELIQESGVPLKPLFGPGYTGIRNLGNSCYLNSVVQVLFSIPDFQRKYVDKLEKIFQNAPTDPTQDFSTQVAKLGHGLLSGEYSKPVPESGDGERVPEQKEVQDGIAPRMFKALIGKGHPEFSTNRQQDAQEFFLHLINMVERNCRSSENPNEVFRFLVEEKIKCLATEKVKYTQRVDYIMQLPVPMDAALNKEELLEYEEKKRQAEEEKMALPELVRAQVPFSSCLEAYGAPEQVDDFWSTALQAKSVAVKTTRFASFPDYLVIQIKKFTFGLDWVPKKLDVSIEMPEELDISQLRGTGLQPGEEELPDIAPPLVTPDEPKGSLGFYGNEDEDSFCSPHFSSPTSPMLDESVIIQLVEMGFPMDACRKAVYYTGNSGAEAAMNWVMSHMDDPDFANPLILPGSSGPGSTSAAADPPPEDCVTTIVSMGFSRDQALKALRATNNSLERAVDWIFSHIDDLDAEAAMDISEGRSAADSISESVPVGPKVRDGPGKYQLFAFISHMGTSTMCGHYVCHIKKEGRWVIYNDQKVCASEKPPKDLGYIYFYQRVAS

[4] = target: Ubiquitin carboxyl-terminal hydrolase 10 (Homo sapiens, UniProt Q14694); assay: biochemical; conditions: read-out: Percentage inhibition (%)
[5] = target: Ubiquitin carboxyl-terminal hydrolase 14 (Homo sapiens, UniProt P54578); assay: biochemical; conditions: read-out: Percentage inhibition (%)
DPP7 = DPP7 (Homo sapiens, UniProt Q9UHL4); assay: biochemical; conditions: read-out: Percentage inhibition (%)
DPP8 = DPP8 (Homo sapiens, UniProt Q6V1X1); assay: biochemical; conditions: read-out: Percentage inhibition (%)
Chain of DPP8 (Q6V1X1 whole entry, species assumed): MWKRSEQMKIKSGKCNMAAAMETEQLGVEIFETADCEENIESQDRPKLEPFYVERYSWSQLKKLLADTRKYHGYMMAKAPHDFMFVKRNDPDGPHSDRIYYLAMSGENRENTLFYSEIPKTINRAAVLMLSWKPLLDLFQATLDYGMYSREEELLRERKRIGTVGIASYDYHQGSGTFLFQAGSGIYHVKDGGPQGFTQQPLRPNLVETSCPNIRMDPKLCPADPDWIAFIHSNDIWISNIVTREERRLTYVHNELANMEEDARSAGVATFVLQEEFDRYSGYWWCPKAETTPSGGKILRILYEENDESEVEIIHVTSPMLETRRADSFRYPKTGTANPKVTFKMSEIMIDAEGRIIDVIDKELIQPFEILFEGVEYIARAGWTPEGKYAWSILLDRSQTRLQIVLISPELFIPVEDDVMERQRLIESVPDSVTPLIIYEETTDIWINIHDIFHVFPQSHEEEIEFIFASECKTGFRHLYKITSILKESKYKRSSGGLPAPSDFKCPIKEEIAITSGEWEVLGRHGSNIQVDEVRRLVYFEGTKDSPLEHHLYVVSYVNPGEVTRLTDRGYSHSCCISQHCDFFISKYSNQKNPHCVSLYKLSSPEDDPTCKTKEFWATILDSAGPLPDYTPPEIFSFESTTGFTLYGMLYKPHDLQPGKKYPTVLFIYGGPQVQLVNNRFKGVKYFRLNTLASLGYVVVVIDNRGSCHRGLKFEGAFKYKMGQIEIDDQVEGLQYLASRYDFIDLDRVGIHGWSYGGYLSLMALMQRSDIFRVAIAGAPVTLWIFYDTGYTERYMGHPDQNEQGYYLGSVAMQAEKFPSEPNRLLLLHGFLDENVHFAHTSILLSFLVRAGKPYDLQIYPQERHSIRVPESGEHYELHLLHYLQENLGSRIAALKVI

Chain of Ubiquitin carboxyl-terminal hydrolase 10 (Q14694 whole entry): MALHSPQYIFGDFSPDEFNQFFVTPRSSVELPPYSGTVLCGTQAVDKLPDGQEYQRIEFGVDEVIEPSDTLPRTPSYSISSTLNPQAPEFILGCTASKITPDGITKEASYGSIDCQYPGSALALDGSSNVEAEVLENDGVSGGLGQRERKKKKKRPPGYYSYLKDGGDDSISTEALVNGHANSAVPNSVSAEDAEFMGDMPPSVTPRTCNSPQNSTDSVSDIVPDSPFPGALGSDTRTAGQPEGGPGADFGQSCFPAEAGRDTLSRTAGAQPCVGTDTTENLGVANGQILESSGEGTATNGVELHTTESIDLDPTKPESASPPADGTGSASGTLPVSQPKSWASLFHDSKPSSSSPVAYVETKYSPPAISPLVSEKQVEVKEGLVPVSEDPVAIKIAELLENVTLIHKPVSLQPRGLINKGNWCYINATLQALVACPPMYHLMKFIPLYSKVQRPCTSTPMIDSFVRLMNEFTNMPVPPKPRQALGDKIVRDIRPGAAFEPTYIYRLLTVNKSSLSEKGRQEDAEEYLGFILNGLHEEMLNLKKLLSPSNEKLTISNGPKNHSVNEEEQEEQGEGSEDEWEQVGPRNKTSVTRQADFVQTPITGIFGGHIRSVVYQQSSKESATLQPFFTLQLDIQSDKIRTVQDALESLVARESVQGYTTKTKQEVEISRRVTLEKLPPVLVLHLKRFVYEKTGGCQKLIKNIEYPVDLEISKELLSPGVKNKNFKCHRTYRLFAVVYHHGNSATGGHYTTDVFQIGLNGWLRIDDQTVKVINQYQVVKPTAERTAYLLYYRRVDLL
Chain of Ubiquitin carboxyl-terminal hydrolase 14 (P54578 whole entry): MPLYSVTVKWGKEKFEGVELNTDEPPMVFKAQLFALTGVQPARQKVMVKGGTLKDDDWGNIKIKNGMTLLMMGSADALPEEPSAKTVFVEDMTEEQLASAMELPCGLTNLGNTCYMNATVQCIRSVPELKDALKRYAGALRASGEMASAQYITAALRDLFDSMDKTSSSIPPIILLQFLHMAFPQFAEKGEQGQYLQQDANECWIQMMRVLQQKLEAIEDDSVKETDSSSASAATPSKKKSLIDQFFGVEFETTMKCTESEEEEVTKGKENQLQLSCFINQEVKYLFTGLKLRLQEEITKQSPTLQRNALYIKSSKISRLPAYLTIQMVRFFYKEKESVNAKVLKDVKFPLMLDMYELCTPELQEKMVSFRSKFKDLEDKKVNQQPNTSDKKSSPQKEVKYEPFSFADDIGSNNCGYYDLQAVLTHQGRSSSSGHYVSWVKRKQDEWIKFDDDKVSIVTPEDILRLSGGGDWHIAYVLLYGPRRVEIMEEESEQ
Chain of CB1 (h) (P21554 whole entry): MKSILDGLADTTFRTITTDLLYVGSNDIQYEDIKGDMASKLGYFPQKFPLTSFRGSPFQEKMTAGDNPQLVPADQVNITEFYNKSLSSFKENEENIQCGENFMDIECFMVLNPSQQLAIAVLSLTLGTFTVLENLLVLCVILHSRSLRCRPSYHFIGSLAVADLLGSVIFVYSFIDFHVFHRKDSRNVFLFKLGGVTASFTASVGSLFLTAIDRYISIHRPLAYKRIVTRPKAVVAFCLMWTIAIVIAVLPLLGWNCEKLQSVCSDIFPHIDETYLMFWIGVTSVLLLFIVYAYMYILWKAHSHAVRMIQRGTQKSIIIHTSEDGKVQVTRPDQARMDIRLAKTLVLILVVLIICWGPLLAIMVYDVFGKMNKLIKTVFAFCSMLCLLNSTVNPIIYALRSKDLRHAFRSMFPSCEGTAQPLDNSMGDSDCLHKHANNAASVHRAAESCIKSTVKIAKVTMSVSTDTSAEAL
Chain of V1a (h) (P37288 whole entry): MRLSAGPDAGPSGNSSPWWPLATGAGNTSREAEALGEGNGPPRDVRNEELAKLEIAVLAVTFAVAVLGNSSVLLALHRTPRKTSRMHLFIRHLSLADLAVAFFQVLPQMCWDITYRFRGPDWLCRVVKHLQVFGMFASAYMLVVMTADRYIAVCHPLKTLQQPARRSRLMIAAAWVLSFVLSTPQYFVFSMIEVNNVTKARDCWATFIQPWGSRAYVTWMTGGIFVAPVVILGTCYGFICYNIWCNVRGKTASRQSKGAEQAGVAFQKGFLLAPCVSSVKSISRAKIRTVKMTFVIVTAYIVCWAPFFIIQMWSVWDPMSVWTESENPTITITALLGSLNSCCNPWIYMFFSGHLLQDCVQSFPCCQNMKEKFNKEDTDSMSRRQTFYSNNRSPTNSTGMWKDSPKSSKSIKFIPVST
Chain of PDE3A (h) (Q14432 whole entry): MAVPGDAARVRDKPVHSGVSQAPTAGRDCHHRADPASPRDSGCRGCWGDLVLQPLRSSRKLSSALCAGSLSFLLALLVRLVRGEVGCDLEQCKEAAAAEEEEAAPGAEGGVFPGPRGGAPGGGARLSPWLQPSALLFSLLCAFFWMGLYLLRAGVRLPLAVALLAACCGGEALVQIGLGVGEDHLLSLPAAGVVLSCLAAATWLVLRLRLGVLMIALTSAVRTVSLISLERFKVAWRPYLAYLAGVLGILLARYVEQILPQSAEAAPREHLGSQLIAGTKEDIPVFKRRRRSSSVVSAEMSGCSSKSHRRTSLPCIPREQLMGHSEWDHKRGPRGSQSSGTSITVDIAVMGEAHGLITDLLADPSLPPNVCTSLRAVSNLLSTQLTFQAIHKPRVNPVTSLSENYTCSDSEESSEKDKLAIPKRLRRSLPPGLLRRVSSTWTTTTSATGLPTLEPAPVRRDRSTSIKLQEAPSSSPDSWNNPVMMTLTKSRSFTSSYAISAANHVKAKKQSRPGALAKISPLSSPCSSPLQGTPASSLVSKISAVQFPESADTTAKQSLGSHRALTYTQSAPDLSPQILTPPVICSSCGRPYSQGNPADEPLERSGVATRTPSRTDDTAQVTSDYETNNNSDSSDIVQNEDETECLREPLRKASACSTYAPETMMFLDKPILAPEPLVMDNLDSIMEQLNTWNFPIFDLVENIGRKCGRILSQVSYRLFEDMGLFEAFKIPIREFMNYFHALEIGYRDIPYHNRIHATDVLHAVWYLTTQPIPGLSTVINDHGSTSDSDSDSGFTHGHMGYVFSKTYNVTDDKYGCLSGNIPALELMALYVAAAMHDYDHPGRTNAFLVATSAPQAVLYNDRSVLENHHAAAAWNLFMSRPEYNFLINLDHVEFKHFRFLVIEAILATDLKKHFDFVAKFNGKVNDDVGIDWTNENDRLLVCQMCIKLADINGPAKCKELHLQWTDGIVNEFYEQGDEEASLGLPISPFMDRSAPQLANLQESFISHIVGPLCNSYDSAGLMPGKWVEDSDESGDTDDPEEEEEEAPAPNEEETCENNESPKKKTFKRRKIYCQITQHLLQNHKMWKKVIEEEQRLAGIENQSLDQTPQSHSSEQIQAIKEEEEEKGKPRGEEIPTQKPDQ
Chain of 5-HT1B (h) (P28222 whole entry): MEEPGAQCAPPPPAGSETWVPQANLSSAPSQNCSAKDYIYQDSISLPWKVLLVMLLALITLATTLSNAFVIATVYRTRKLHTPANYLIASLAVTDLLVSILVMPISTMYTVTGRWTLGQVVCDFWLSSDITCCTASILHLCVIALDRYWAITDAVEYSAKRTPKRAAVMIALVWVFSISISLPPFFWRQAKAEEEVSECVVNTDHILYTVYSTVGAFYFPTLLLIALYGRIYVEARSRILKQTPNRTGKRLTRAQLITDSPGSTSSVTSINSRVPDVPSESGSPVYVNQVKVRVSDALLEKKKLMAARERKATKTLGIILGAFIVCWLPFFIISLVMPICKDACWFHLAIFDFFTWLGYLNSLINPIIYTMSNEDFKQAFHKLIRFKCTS

Row | SMILES | % Inhibition of Specific Binding (NMDA) [%] | inhibition at 10 µM (CB1 (h)) [%] | inhibition at 10 µM [1] [%] | inhibition at 10 µM (5-HT1B (h)) [%] | inhibition at 10 µM (V1a (h)) [%] | inhibition at 10 µM (COX1(h)) [%] | inhibition at 10 µM (PDE3A (h)) [%] | inhibition at 1 µM (Cathepsin F) [%] | inhibition at 10 µM (Cathepsin F) [%] | inhibition at 1 µM [2] [%] | inhibition at 10 µM [2] [%] | inhibition at 1 µM [3] [%] | inhibition at 10 µM [3] [%] | inhibition at 1 µM [4] [%] | inhibition at 10 µM [4] [%] | inhibition at 1 µM [5] [%] | inhibition at 10 µM [5] [%] | inhibition at 1 µM (DPP7) [%] | inhibition at 10 µM (DPP7) [%] | inhibition at 1 µM (DPP8) [%] | further results
1 | CCCCCC(=O)N[C@H]1CSCc2cc(CSCCNC(=O)CN3CCN(CC(=O)O)CCN(CC(=O)O)CCN(CC(=O)O)CC3)cc(c2)CSC[C@@H](C(=O)O)NC(=O)[C@H](Cc2ccccc2)NC(=O)[C@H](CCC(N)=O)NC(=O)[C@H]([C@@H](C)O)NC(=O)[C@@H]2CCCN2C(=O)[C@@H]2CCCN2C1=O [Compound 3BP-3554, Hex-[Cys(tMeBn(DOTA-AET))-Pro-Pro-Thr-Gln-Phe-Cys]-OH] | 1 | -7 | -2 | 8 | 1 | 8 | -37 | -23 | -25 | -4 | 4 | -4 | -2 | 1 | -1 | 1 | 2 | -1 | -7 | 1 | inhibition at 10 µM (DPP8): 11%
2 | CCCCCC(=O)N[C@H]1CSCc2cc(cc(CN3CCN(C(=O)CN4CCN(CC(=O)O)CCN(CC(=O)O)CCN(CC(=O)O)CC4)CC3)c2)CSC[C@@H](C(=O)N[C@@H](CC(=O)O)C(N)=O)NC(=O)[C@H](Cc2ccccc2)NC(=O)[C@H](CCC(N)=O)NC(=O)[C@H]([C@@H](C)O)NC(=O)[C@@H]2CCCN2C(=O)[C@@H]2CCCN2C1=O [Compound 3BP-3407, Hex-[Cys(tMeBn(DOTA-PP))-Pro-Pro-Thr-Gln-Phe-Cys]-Asp-NH2] (Hexanoyl-CPPTQFCD-NH2; linker 1-7 via X1) | 9 | 5 | -8 | -11 | 16 | 10 | -3 | -3 | -24 | -2 | 4 | 3 | 46 | -2 | 5 | -1 | 5 | 2 | -3 | 1 | inhibition at 10 µM (DPP8): 5%
